Values after ≈ are worked out from the molar mass of the structure shown.
Legend:
Haemophilus influenzae [1] = experiment: %TMIC in Haemophilus influenzae SR24169 clinical isolate based on area above the killing curve index by half maximum antibacterial activity criteria based in vitro pharmacodynamic model; format: functional
Streptococcus pneumoniae [2] = experiment: Half maximum antibacterial activity against erythromycin-resistant Streptococcus pneumoniae SR26132 clinical isolate expressing ermB gene based on viable cell reduction at 24 hrs index in vitro pharmacodynamic model; format: ADME, organism-based
Streptococcus pneumoniae [3] = experiment: Cmax in erythromycin-resistant Streptococcus pneumoniae SR26132 clinical isolate expressing ermB gene in vitro pharmacodynamic model; format: ADME, organism-based; details: in vivo
Haemophilus influenzae [4] = experiment: Ratio of AUC (0 to 24 hrs) to MIC in Haemophilus influenzae SR24169 clinical isolate based on area above the killing curve index by minimum antibacterial activity criteria based in vitro pharmacodynamic model; format: functional
Haemophilus influenzae [5] = experiment: Ratio of Cmax to MIC in Haemophilus influenzae SR24169 clinical isolate based on viable cell reduction at 24 hrs index by maximum antibacterial activity criteria based in vitro pharmacodynamic model; format: functional
Haemophilus influenzae [6] = experiment: %TMIC in Haemophilus influenzae SR24169 clinical isolate based on area above the killing curve index by minimum antibacterial activity criteria based in vitro pharmacodynamic model; format: functional
Streptococcus pneumoniae [7] = experiment: Antibacterial activity against erythromycin-susceptible Streptococcus pneumoniae SR26229 clinical isolate by broth microdilution method; format: functional
Streptococcus pneumoniae [8] = experiment: Antibacterial activity against erythromycin-resistant Streptococcus pneumoniae SR26143 clinical isolate expressing mefA gene by broth microdilution method; format: functional
Streptococcus pneumoniae [9] = experiment: Cmax in erythromycin-susceptible Streptococcus pneumoniae SR26229 clinical isolate in vitro pharmacodynamic model; format: ADME, organism-based; details: in vivo
Streptococcus pneumoniae [10] = experiment: AUC (0 to 24 hrs) in erythromycin-resistant Streptococcus pneumoniae SR26132 clinical isolate expressing ermB gene in vitro pharmacodynamic model; format: ADME, organism-based; set-up: time < 24 hr; details: in vivo
Haemophilus influenzae [11] = experiment: Ratio of AUC (0 to 24 hrs) to MIC in Haemophilus influenzae SR24169 clinical isolate based on viable cell reduction at 24 hrs index by maximum antibacterial activity criteria based in vitro pharmacodynamic model; format: functional
Haemophilus influenzae [12] = experiment: Ratio of AUC (0 to 24 hrs) to MIC in Haemophilus influenzae SR24169 clinical isolate by bacteriostatic effect criteria based in vitro pharmacodynamic model; format: functional
Haemophilus influenzae [13] = experiment: Ratio of AUC (0 to 24 hrs) to MIC in Haemophilus influenzae SR24169 clinical isolate by maximal efficacy criteria based in vitro pharmacodynamic model; format: functional
Haemophilus influenzae [14] = experiment: Half life in Haemophilus influenzae SR24169 clinical isolate in vitro pharmacodynamic model; format: ADME, organism-based; details: in vivo
Haemophilus influenzae [15] = experiment: Ratio of AUC (0 to 24 hrs) to MIC in Haemophilus influenzae SR24169 clinical isolate based on viable cell reduction at 24 hrs index by minimum antibacterial activity criteria based in vitro pharmacodynamic model; format: functional
Streptococcus pneumoniae [16] = experiment: Ratio of AUC (0 to 24 hrs) to MIC in erythromycin-resistant Streptococcus pneumoniae SR26143 clinical isolate expressing mefA gene by bacteriostatic effect criteria based in vitro pharmacodynamic model; format: functional
Haemophilus influenzae [17] = experiment: Ratio of AUC (0 to 24 hrs) to MIC in Haemophilus influenzae SR24169 clinical isolate based on area above the killing curve index by maximum antibacterial activity criteria based in vitro pharmacodynamic model; format: functional
Streptococcus pneumoniae [18] = experiment: Half life in erythromycin-susceptible Streptococcus pneumoniae SR26229 clinical isolate in vitro pharmacodynamic model; format: ADME, organism-based; details: in vivo
Streptococcus pneumoniae [19] = experiment: Maximum antibacterial activity against erythromycin-susceptible Streptococcus pneumoniae SR26229 clinical isolate based on area above the killing curve index in vitro pharmacodynamic model; format: ADME, organism-based; details: in vivo
Streptococcus pneumoniae [20] = experiment: Minimum antibacterial activity against erythromycin-resistant Streptococcus pneumoniae SR26143 clinical isolate expressing mefA gene based on viable cell reduction at 24 hrs index in vitro pharmacodynamic model; format: ADME, organism-based
Streptococcus pneumoniae [21] = experiment: Maximum antibacterial activity against erythromycin-resistant Streptococcus pneumoniae SR26143 clinical isolate expressing mefA gene based on area above the killing curve index in vitro pharmacodynamic model; format: ADME, organism-based; details: in vivo
Haemophilus influenzae [22] = experiment: %TMIC in Haemophilus influenzae SR24169 clinical isolate based on viable cell reduction at 24 hrs index by minimum antibacterial activity criteria based in vitro pharmacodynamic model; format: functional
Streptococcus pneumoniae [23] = experiment: AUC (0 to 24 hrs) in erythromycin-susceptible Streptococcus pneumoniae SR26229 clinical isolate in vitro pharmacodynamic model; format: ADME, organism-based; set-up: time < 24 hr; details: in vivo
Streptococcus pneumoniae [24] = experiment: Half maximum antibacterial activity against erythromycin-susceptible Streptococcus pneumoniae SR26229 clinical isolate based on viable cell reduction at 24 hrs index in vitro pharmacodynamic model; format: ADME, organism-based
Streptococcus pneumoniae [25] = experiment: Half life in erythromycin-resistant Streptococcus pneumoniae SR26143 clinical isolate expressing mefA gene in vitro pharmacodynamic model; format: ADME, organism-based; details: in vivo
Streptococcus pneumoniae [26] = experiment: Half maximum antibacterial activity against erythromycin-resistant Streptococcus pneumoniae SR26132 clinical isolate expressing ermB gene based on area above the killing curve index in vitro pharmacodynamic model; format: ADME, organism-based; details: in vivo
Streptococcus pneumoniae [27] = experiment: Minimum antibacterial activity against erythromycin-resistant Streptococcus pneumoniae SR26132 clinical isolate expressing ermB gene based on viable cell reduction at 24 hrs index in vitro pharmacodynamic model; format: ADME, organism-based
Streptococcus pneumoniae [28] = experiment: Half maximum antibacterial activity against erythromycin-susceptible Streptococcus pneumoniae SR26229 clinical isolate based on area above the killing curve index in vitro pharmacodynamic model; format: ADME, organism-based; details: in vivo

For CC[C@H]1OC(=O)[C@H](C)C(=O)[C@H](C)[C@@H](O[C@@H]2O[C@H](C)C[C@H](N(C)C)[C@H]2O)[C@@]2(C)C[C@@H](C)/C(=N\C(C)=O)[C@H](C)C(OC/C(=N\OCc3ccc(-n4cccn4)nc3)CO2)[C@]1(C)O (single isomer, unassigned), the Ratio (Haemophilus influenzae [1]) was 3.0676, the Activity (Streptococcus pneumoniae [2]) was 5.11 and the Cmax (Streptococcus pneumoniae [3]) was 16 ng/mL. The Ratio (Haemophilus influenzae [4]) was 0, the Ratio (Haemophilus influenzae [5]) was 6.0956 and the Ratio (Haemophilus influenzae [6]) was 0. It also gave an MIC (Streptococcus pneumoniae [7]) of 0.063 µg/mL (≈ 0.0749 µM), an MIC (Streptococcus pneumoniae [8]) of 0.125 µg/mL (≈ 0.149 µM) and a Cmax (Streptococcus pneumoniae [9]) of 4 ng/mL. For the same compound, the AUC (Streptococcus pneumoniae [10]) was 280 ng·h/mL, the Ratio (Haemophilus influenzae [11]) was 6.4436 and the Ratio (Haemophilus influenzae [12]) was 9.63. The Ratio (Haemophilus influenzae [13]) was 10.8, the t1/2 (Haemophilus influenzae [14]) was 2.22 h and the Ratio (Haemophilus influenzae [15]) was -2.4461. For the same compound, the Ratio (Streptococcus pneumoniae [16]) was 15.2, the Ratio (Haemophilus influenzae [17]) was 80.2825 and the t1/2 (Streptococcus pneumoniae [18]) was 17.6 h. For the same compound, the Activity (Streptococcus pneumoniae [19]) was 78.23, the Activity (Streptococcus pneumoniae [20]) was 2.36 and the Activity (Streptococcus pneumoniae [21]) was 80.2. It also gave a Ratio (Haemophilus influenzae [22]) of -1.1805, an AUC (Streptococcus pneumoniae [23]) of 70 ng·h/mL and an Activity (Streptococcus pneumoniae [24]) of 9.35. For the same compound, the t1/2 (Streptococcus pneumoniae [25]) was 17.6 h, the Activity (Streptococcus pneumoniae [26]) was 8.75 and the Activity (Streptococcus pneumoniae [27]) was -2.14. The Activity (Streptococcus pneumoniae [28]) was 9.96.

Reference: ChEMBL document CHEMBL1671738, “In vitro pharmacokinetic and pharmacodynamic evaluation of S-013420 against Haemophilus influenzae and Streptococcus pneumoniae” (Antimicrob Agents Chemother, 2010)
